# Results published in patent US20250360167A1 (Keryx Biopharmaceuticals, Inc., priority 2013, published 2025).
# Assays:
# serum calcium = assay: Phase 3 trial (Example 1): serum calcium; format: in vivo, human
# Method: Serum phosphorus and calcium were performed at Screening (Visit 0); weekly during the Washout Period after Visit 1 (Week −2); at Visit 4 (Randomization Visit); at Visits 5 (Week 1), 6 (Week 2), 7 (Week 4), 8 (Week 6), 9 (Week 8), 10 (Week 10), 11 (Week 12), 12 (Week 16), 13 (Week 20), 14 (Week 24), 15 (Week 28), 16 (Week 32), 17 (Week 36), 18 (Week 40), 19 (Week 44), 20 (Week 48), and 21 (Week 52) of the 52-week Safety Assessment Period; and at Visits 22 (Week 53), 23 (Week 54), 24 (Week 55) and 25 (Week 56) of the Efficacy Assessment Period.
# These variables will be analyzed using LOCF methodology. ANCOVA will be employed. The model will include treatment (fixed effect), and Visit-4 baseline (covariate). An analysis using MMRM method will be conducted as a sensitivity analysis. The least square mean estimates of the treatment effects as well as the 2-sided 95% confidence intervals (CI) of the treatment effects will be derived.
# (§1) • 1. Change in serum calcium concentration at Weeks 12, 24, 36, 48, and 52 as compared to baseline (Visit 4). This variable will be analyzed using LOCF methodology. ANCOVA will be employed. The model will include treatment (fixed effect), and baseline (covariate). • 2. Change in ferritin, and TSAT at Weeks 12, 24, 36 and 48 as compared to baseline (Visit 4). This variable will be analyzed using LOCF methodology. ANCOVA will be employed. The model will include treatment (fixed effect), and baseline (covariate). • 3. Change in serum iron and TIBC at Weeks 12, 24, 36, 48, and 52 as compared to baseline (Visit 4). This variable will be analyzed using LOCF methodology. ANCOVA will be employed. The model will include treatment (fixed effect), and baseline (covariate). • 4. Change in Ca x P product at Weeks 12, 24, 36, 48, and 52 as compared to baseline (Visit 4). This variable will be analyzed using LOCF methodology. ANCOVA will be employed. The model will include treatment (fixed effect), and baseline (covariate). • 5. Change in iPTH at Weeks 12, 36, 52, and 56 as compared to baseline (Visit 4). This variable will be analyzed using LOCF methodology. ANCOVA will be employed. The model will include treatment (fixed effect), and baseline (covariate). • 6. Change in serum […], vitamin A, vitamin B-12, vitamin E, vitamin K and folic acid at Weeks 12, 36, and 52 as compared to baseline (Visit 4). This variable will be analyzed using LOCF methodology. ANCOVA will be employed. The model will include treatment (fixed effect), and baseline (covariate). • 7. Change in serum bicarbonate concentration at Weeks 12, 36, and 52 as compared to baseline (Visit 4). This variable will be analyzed using LOCF methodology. ANCOVA will be employed. The model will include treatment (fixed effect), and baseline (covariate). • 8. Change in IV iron intake at Weeks 12, 24, 36, 48, and 52 as compared to baseline (Visit 4). This variable will be analyzed using LOCF methodology. ANCOVA will be employed. The model will include treatment (fixed effect), and baseline (covariate). • 9. Change in the use of EPO (ESA) administered at Weeks 12, 24, 36, 48, and 52 as compared to baseline (Visit 4). This variable will be analyzed using LOCF methodology. ANCOVA will be employed. The model will include treatment (fixed effect), and baseline (covariate). • 10. Change in the use of Vitamin D supplementation (and its analogs) and Sensipar (cinacalcet) at Weeks 12, 24, 36, 48, and 52 as compared to baseline (Visit 4). This variable will be analyzed using LOCF methodology. ANCOVA will be employed. The model will include treatment (fixed effect), and baseline (covariate). • 11. Change in LDL, HDL, and triglycerides at Weeks 12, 36, and 52 as compared to baseline (Visit 4). This variable will be analyzed using LOCF methodology. ANCOVA will be employed. The model will include treatment (fixed effect), and baseline (covariate).
# [1] = test system: transferrin saturation (TSAT); assay: Phase 3 trial (Example 1): TSAT; format: in vivo, human; set-up: TSAT, Mean / TSAT, Median / TSAT, Change from Baseline, Mean / TSAT, Change from Baseline, Median / TSAT, LS Mean / TSAT, Treatment Differences, LS Mean (KRX-0502) − LS Mean (control): unit not given here; conditions: for TSAT, Mean / TSAT, Median / TSAT, LS Mean / TSAT, Change from Baseline, Mean / TSAT, Change from Baseline, Median / TSAT, Treatment Differences, LS Mean (KRX-0502) − LS Mean (control): Table 16
# From the text: Iron studies including serum iron, ferritin, TSAT, and total iron-binding capacity were done at Screening (Visit 0); at the Randomization Visit (Visit 4); at Visits 7 (Week 4), 9 (Week 8), 11 (Week 12), 12 (Week 16), 13 (Week 20), 14 (Week 24), 15 (Week 28), 16 (Week 32), 17 (Week 36), 18 (Week 40), 19 (Week 44), 20 (Week 48), and 21 (Week 52) of the 52-week Safety Assessment Period; and at Visit 25 (Week 56) of the Efficacy Assessment Period.
# Change from baseline in TSAT at Week 52 as compared to baseline (Visit 4). This variable will be analyzed using LOCF methodology. ANCOVA will be employed. The model will include treatment (fixed effect), and baseline (covariate). A sensitivity analysis will be performed using MMRM method.
# as §1
# [2] = Day 0 Baseline, Safety Assessment Period
substance,measurement,setting,value
"iron (+3), x (1, 2, 3-propanetricarboxylic acid, 2-hydroxy-), y (H2O) [KRX-0502]","Calcium, Mean","serum calcium; Baseline, Table 12",8.843 mg/dL
same,"Calcium, Median","serum calcium; Baseline, Table 12",8.900 mg/dL
same,"Calcium, Week 12 Change from Baseline, Mean",serum calcium; Table 12,0.245 mg/dL
same,"Calcium, Week 12 Change from Baseline, Median",serum calcium; Table 12,0.200 mg/dL
same,"Calcium, LS Mean","serum calcium; Week 12, ANCOVA, Table 12",9.11 mg/dL
same,"Calcium, Mean","serum calcium; Week 12, Table 12",9.089 mg/dL
same,"Calcium, Median","serum calcium; Week 12, Table 12",9.100 mg/dL
same,"Calcium, Treatment Differences, LS Mean (KRX-0502) − LS Mean (Control)","serum calcium; Week 12, control = sevelamer carbonate as a single agent",-0.04 mg/dL
same,"Mean TSAT, LS Mean Difference from Active Control Group at Week 52","[1]; ANCOVA, Table D",10%
same,Mean TSAT,"[1]; Baseline (Day 0), Table D",31%
same,"TSAT, Mean",[1]; [2],31.0
same,"TSAT, Median",[1]; [2],29.5
same,"TSAT, LS Mean","[1]; Week 12, ANCOVA",40.17
same,Mean TSAT,"[1]; Week 12, LOCF, Table D",40%
same,"TSAT, Change from Baseline, Mean",[1]; Week 12,9.2
same,"TSAT, Change from Baseline, Median",[1]; Week 12,7.0
same,"TSAT, Mean",[1]; Week 12,40.2
same,"TSAT, Median",[1]; Week 12,37.0
same,"TSAT, Treatment Differences, LS Mean (KRX-0502) − LS Mean (control)",[1]; Week 12,8.74
same,"TSAT, LS Mean","[1]; Week 24, ANCOVA",39.90
same,Mean TSAT,"[1]; Week 24, LOCF, Table D",40%
same,"TSAT, Change from Baseline, Mean",[1]; Week 24,8.9
same,"TSAT, Change from Baseline, Median",[1]; Week 24,7.0
same,"TSAT, Mean",[1]; Week 24,39.9
same,"TSAT, Median",[1]; Week 24,38.0
same,"TSAT, Treatment Differences, LS Mean (KRX-0502) − LS Mean (control)",[1]; Week 24,8.28
same,"TSAT, LS Mean","[1]; Week 36, ANCOVA",39.80
same,Mean TSAT,"[1]; Week 36, LOCF, Table D",40%
same,"TSAT, Change from Baseline, Mean",[1]; Week 36,8.8
same,"TSAT, Change from Baseline, Median",[1]; Week 36,7.0
same,"TSAT, Mean",[1]; Week 36,39.8
same,"TSAT, Median",[1]; Week 36,37.0
same,"TSAT, Treatment Differences, LS Mean (KRX-0502) − LS Mean (control)",[1]; Week 36,9.44
same,"TSAT, LS Mean","[1]; Week 48, ANCOVA",40.60
same,Mean TSAT,"[1]; Week 48, LOCF, Table D",41%
same,"TSAT, Change from Baseline, Mean",[1]; Week 48,9.6
same,"TSAT, Change from Baseline, Median",[1]; Week 48,7.0
same,"TSAT, Mean",[1]; Week 48,40.6
same,"TSAT, Median",[1]; Week 48,38.0
same,"TSAT, Treatment Differences, LS Mean (KRX-0502) − LS Mean (control)",[1]; Week 48,11.17
same,"TSAT, LS Mean","[1]; Week 52, ANCOVA",39.35
same,Mean TSAT,"[1]; Week 52, LOCF, Table D",39%
same,"TSAT, Change from Baseline, Mean",[1]; Week 52,8.3
same,"TSAT, Change from Baseline, Median",[1]; Week 52,6.0
same,"TSAT, Mean",[1]; Week 52,39.4
same,"TSAT, Median",[1]; Week 52,35.0
same,"TSAT, Treatment Differences, LS Mean (KRX-0502) − LS Mean (control)",[1]; Week 52,9.66
same,"Mean TSAT, % Change from Baseline","[1]; Week 52, relative change, Table D",25.8%
same,"Mean TSAT, Change from Baseline at Week 52","[1]; absolute TSAT points, Table D",8%
